One compound from patent publication US20200325109A1, “IMINO-UREA DERIVATIVES” (Lunan Pharmaceutical Group Corporation, priority 2017, published 2020) can be followed below.

One data set relates to LLC tumors. The data set is described as follows: In vivo antitumor activity test, LLC tumors in mice. The settings on record: LLC tumors in C57BL6 mice, once per day, 21 days.
The nature of data set [1]: Effects of compounds on body weight of mice in the LLC tumor test. The settings on record: LLC tumor-bearing mice.

In turn, `O=P1(N(CCCl)CCCl)NCCCO1` (stereo not shown) [CTX, cyclophosphamide, reference compound] showed a Tumor weight with LLC tumors (CTX intraperitoneal 150 mg·kg^−1, compounds intragastric) of 0.701 ± 0.314 g. The same compound displayed a Tumor inhibition rate in the data set with LLC tumors (from average tumor weight vs model group) of 53.7%. Moreover, the “Average body weight after test” value in data set [1] (after test (21 days of administration)) is reported as 19 ± 3.3 g. In addition, in data set [1] (before test), the “Average body weight before test” value turned out to be 22 ± 3.1 g.
